Experimental data as given in US20110039721A1, “METHOD FOR PREDICTION ABOUT CARCINOGENICITY OF SUBSTANCE IN RODENT” (Chemicals Evaluation and Research Institute, priority 2007, published 2011).

Experiments:
[1] = tested on: liver; details: in vivo; cited from earlier work
[2] = tested on: rodent; details: in vivo; cited from earlier work
[3] = tested on: mRNA expressed from the genes (A) to (D) in rat liver; test: Behavior of genes (mRNA expression level, oligo-DNA microarray) in rat liver after 28-day oral administration; assay type: in vivo; details: mRNA vs vehicle control group; for Behavior of gene caused by administration of chemical substance, Gene No. 4846 / Behavior of gene caused by administration of chemical substance, Gene No. 2026 / Behavior of gene caused by administration of chemical substance, Gene No. 4218 / Behavior of gene caused by administration of chemical substance, Gene No. 6182 / Behavior of gene caused by administration of chemical substance, Gene No. 5600: gene group (A); for Behavior of gene caused by administration of chemical substance, Gene No. 4846: Unigene No. Rn.144554; for Behavior of gene caused by administration of chemical substance, Gene No. 2026 / Behavior of gene caused by administration of chemical substance, Gene No. 4218: Unigene No. Rn.167075; for Behavior of gene caused by administration of chemical substance, Gene No. 6182: Unigene No. Rn.5834; for Behavior of gene caused by administration of chemical substance, Gene No. 5600: Unigene No. Rn.9836; for Behavior of gene caused by administration of chemical substance, Gene No. 1494 / Behavior of gene caused by administration of chemical substance, Gene No. 2045 / Behavior of gene caused by administration of chemical substance, Gene No. 2203: gene group (B); for Behavior of gene caused by administration of chemical substance, Gene No. 1494: Unigene No. Rn.1430; for Behavior of gene caused by administration of chemical substance, Gene No. 2045: Unigene No. Rn.19329; for Behavior of gene caused by administration of chemical substance, Gene No. 2203: Unigene No. Rn.21240; for Behavior of gene caused by administration of chemical substance, Gene No. 533 / Behavior of gene caused by administration of chemical substance, Gene No. 725 / Behavior of gene caused by administration of chemical substance, Gene No. 1163 / Behavior of gene caused by administration of chemical substance, Gene No. 4973 / Behavior of gene caused by administration of chemical substance, Gene No. 4095 / Behavior of gene caused by administration of chemical substance, Gene No. 1334 / Behavior of gene caused by administration of chemical substance, Gene No. 6620 / Behavior of gene caused by administration of chemical substance, Gene No. 6303 / Behavior of gene caused by administration of chemical substance, Gene No. 5878 / Behavior of gene caused by administration of chemical substance, Gene No. 1131 / Behavior of gene caused by administration of chemical substance, Gene No. 1562 / Behavior of gene caused by administration of chemical substance, Gene No. 1741 / Behavior of gene caused by administration of chemical substance, Gene No. 893 / Behavior of gene caused by administration of chemical substance, Gene No. 6026 / Behavior of gene caused by administration of chemical substance, Gene No. 154 / Behavior of gene caused by administration of chemical substance, Gene No. 1993 / Behavior of gene caused by administration of chemical substance, Gene No. 813 / Behavior of gene caused by administration of chemical substance, Gene No. 2494 / Behavior of gene caused by administration of chemical substance, Gene No. 2546 / Behavior of gene caused by administration of chemical substance, Gene No. 3776 / Behavior of gene caused by administration of chemical substance, Gene No. 3929 / Behavior of gene caused by administration of chemical substance, Gene No. 1119 / Behavior of gene caused by administration of chemical substance, Gene No. 6742 / Behavior of gene caused by administration of chemical substance, Gene No. 5634: gene group (C); for Behavior of gene caused by administration of chemical substance, Gene No. 533: Unigene No. Rn.106184; for Behavior of gene caused by administration of chemical substance, Gene No. 725: Unigene No. Rn.108075; for Behavior of gene caused by administration of chemical substance, Gene No. 1163: Unigene No. Rn.11766; for Behavior of gene caused by administration of chemical substance, Gene No. 4973: Unigene No. Rn.118529; for Behavior of gene caused by administration of chemical substance, Gene No. 4095: Unigene No. Rn.119024; for Behavior of gene caused by administration of chemical substance, Gene No. 1334 / Behavior of gene caused by administration of chemical substance, Gene No. 6620: Unigene No. Rn.120914; for Behavior of gene caused by administration of chemical substance, Gene No. 6303: Unigene No. Rn.123063; for Behavior of gene caused by administration of chemical substance, Gene No. 5878: Unigene No. Rn.143213; for Behavior of gene caused by administration of chemical substance, Gene No. 1131: Unigene No. Rn.144946; for Behavior of gene caused by administration of chemical substance, Gene No. 1562: Unigene No. Rn.14744; for Behavior of gene caused by administration of chemical substance, Gene No. 1741: Unigene No. Rn.1647; for Behavior of gene caused by administration of chemical substance, Gene No. 893: Unigene No. Rn.164817; for Behavior of gene caused by administration of chemical substance, Gene No. 6026: Unigene No. Rn.167685; for Behavior of gene caused by administration of chemical substance, Gene No. 154: Unigene No. Rn.185941; for Behavior of gene caused by administration of chemical substance, Gene No. 1993: Unigene No. Rn.18728; for Behavior of gene caused by administration of chemical substance, Gene No. 813: Unigene No. Rn.201760; for Behavior of gene caused by administration of chemical substance, Gene No. 2494: Unigene No. Rn.23969; for Behavior of gene caused by administration of chemical substance, Gene No. 2546: Unigene No. Rn.24561; for Behavior of gene caused by administration of chemical substance, Gene No. 3776: Unigene No. Rn.43232; for Behavior of gene caused by administration of chemical substance, Gene No. 3929: Unigene No. Rn.4620; for Behavior of gene caused by administration of chemical substance, Gene No. 1119: Unigene No. Rn.9757; for Behavior of gene caused by administration of chemical substance, Gene No. 6742: Unigene No. Rn.9779; for Behavior of gene caused by administration of chemical substance, Gene No. 5634: Unigene No. Rn.9862; for Behavior of gene caused by administration of chemical substance, Gene No. 5726: gene group (D), Unigene No. Rn.9939
In short: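 Rat liver RNA after 28 days of daily gavage dosing (male F344, 5 weeks old, four per group). A change reaching 1.5-fold, or 1/1.5, against solvent control scores as significant; opposite direction versus another carcinogen scores as not significant.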

| Compound | Liver carcinogenicity [1] | Carcinogenicity [2] | Behavior of gene caused by administration of chemical substance, Gene No. 4846 [3] | Behavior of gene caused by administration of chemical substance, Gene No. 2026 [3] | Behavior of gene caused by administration of chemical substance, Gene No. 4218 [3] | Behavior of gene caused by administration of chemical substance, Gene No. 6182 [3] | Behavior of gene caused by administration of chemical substance, Gene No. 5600 [3] | Behavior of gene caused by administration of chemical substance, Gene No. 1494 [3] | Behavior of gene caused by administration of chemical substance, Gene No. 2045 [3] | Behavior of gene caused by administration of chemical substance, Gene No. 2203 [3] | Behavior of gene caused by administration of chemical substance, Gene No. 533 [3] | Behavior of gene caused by administration of chemical substance, Gene No. 725 [3] | Behavior of gene caused by administration of chemical substance, Gene No. 1163 [3] | Behavior of gene caused by administration of chemical substance, Gene No. 4973 [3] | Behavior of gene caused by administration of chemical substance, Gene No. 4095 [3] | Behavior of gene caused by administration of chemical substance, Gene No. 1334 [3] | Behavior of gene caused by administration of chemical substance, Gene No. 6620 [3] | Behavior of gene caused by administration of chemical substance, Gene No. 6303 [3] | Behavior of gene caused by administration of chemical substance, Gene No. 5878 [3] | Behavior of gene caused by administration of chemical substance, Gene No. 1131 [3] | further results |
| --- | --- | --- | --- | --- | --- | --- | --- | --- | --- | --- | --- | --- | --- | --- | --- | --- | --- | --- | --- | --- | --- |
| Cc1cccc(N=Nc2ccc(N(C)C)cc2)c1 [TS076, 3′-Methyl-4-dimethylaminoazobenzene] | Cr+ | C+ | + | + | + | + | + | + | + | − | + | + | − | + | + | − | − | + | − | − | Behavior of gene caused by administration of chemical substance, Gene No. 1562 [3]: +; Behavior of gene caused by administration of chemical substance, Gene No. 1741 [3]: +; Behavior of gene caused by administration of chemical substance, Gene No. 893 [3]: −; Behavior of gene caused by administration of chemical substance, Gene No. 6026 [3]: −; Behavior of gene caused by administration of chemical substance, Gene No. 154 [3]: +; Behavior of gene caused by administration of chemical substance, Gene No. 1993 [3]: +; Behavior of gene caused by administration of chemical substance, Gene No. 813 [3]: −; Behavior of gene caused by administration of chemical substance, Gene No. 2494 [3]: −; Behavior of gene caused by administration of chemical substance, Gene No. 2546 [3]: −; Behavior of gene caused by administration of chemical substance, Gene No. 3776 [3]: −; Behavior of gene caused by administration of chemical substance, Gene No. 3929 [3]: −; Behavior of gene caused by administration of chemical substance, Gene No. 1119 [3]: −; Behavior of gene caused by administration of chemical substance, Gene No. 6742 [3]: −; Behavior of gene caused by administration of chemical substance, Gene No. 5634 [3]: −; Behavior of gene caused by administration of chemical substance, Gene No. 5726 [3]: − |
| CN(C)c1ccc(N=Nc2ccccc2)cc1 [TS077, 4-Dimethylaminoazobenzene] | Cr+ | C+ | − | − | − | + | − | + | + | − | − | − | − | − | − | − | − | + | − | − | Behavior of gene caused by administration of chemical substance, Gene No. 1562 [3]: −; Behavior of gene caused by administration of chemical substance, Gene No. 1741 [3]: −; Behavior of gene caused by administration of chemical substance, Gene No. 893 [3]: −; Behavior of gene caused by administration of chemical substance, Gene No. 6026 [3]: +; Behavior of gene caused by administration of chemical substance, Gene No. 154 [3]: −; Behavior of gene caused by administration of chemical substance, Gene No. 1993 [3]: −; Behavior of gene caused by administration of chemical substance, Gene No. 813 [3]: −; Behavior of gene caused by administration of chemical substance, Gene No. 2494 [3]: −; Behavior of gene caused by administration of chemical substance, Gene No. 2546 [3]: −; Behavior of gene caused by administration of chemical substance, Gene No. 3776 [3]: −; Behavior of gene caused by administration of chemical substance, Gene No. 3929 [3]: −; Behavior of gene caused by administration of chemical substance, Gene No. 1119 [3]: −; Behavior of gene caused by administration of chemical substance, Gene No. 6742 [3]: −; Behavior of gene caused by administration of chemical substance, Gene No. 5634 [3]: −; Behavior of gene caused by administration of chemical substance, Gene No. 5726 [3]: + |
| O=C(O)C1C(C(=O)O)C2(Cl)C(Cl)=C(Cl)C1(Cl)C2(Cl)Cl (stereo not drawn) [TS078, Chlorendic acid] | Cr+ | C+ | − | + | − | − | − | + | + | + | − | − | + | + | − | − | − | − | − | − | Behavior of gene caused by administration of chemical substance, Gene No. 1562 [3]: −; Behavior of gene caused by administration of chemical substance, Gene No. 1741 [3]: −; Behavior of gene caused by administration of chemical substance, Gene No. 893 [3]: −; Behavior of gene caused by administration of chemical substance, Gene No. 6026 [3]: −; Behavior of gene caused by administration of chemical substance, Gene No. 154 [3]: −; Behavior of gene caused by administration of chemical substance, Gene No. 1993 [3]: −; Behavior of gene caused by administration of chemical substance, Gene No. 813 [3]: −; Behavior of gene caused by administration of chemical substance, Gene No. 2494 [3]: −; Behavior of gene caused by administration of chemical substance, Gene No. 2546 [3]: −; Behavior of gene caused by administration of chemical substance, Gene No. 3776 [3]: −; Behavior of gene caused by administration of chemical substance, Gene No. 3929 [3]: −; Behavior of gene caused by administration of chemical substance, Gene No. 1119 [3]: −; Behavior of gene caused by administration of chemical substance, Gene No. 6742 [3]: −; Behavior of gene caused by administration of chemical substance, Gene No. 5634 [3]: +; Behavior of gene caused by administration of chemical substance, Gene No. 5726 [3]: − |
